Patent US20250042916A1 (ACONCAGUA BIO, INC., priority 2023, published 2025)

Molecular target: human calcitonin receptor (CTR) and RAMP3 (AMY3) in COS-7 cells (Homo sapiens, UniProt O60896+P30988)
Test: Amylin Receptor cAMP Assay I
Format: cell-based
Details: values marked *: Amylin Receptor cAMP Assay I; COS-7/AMY3 cells; read-out: Amylin Receptor cAMP Stimulation Activity: EC50
Text: Amylin Receptor cAMP Assay I
AMYRs are heterodimers of the class B calcitonin (CT) G-protein-coupled receptor (CTR) and receptor activity-modifying proteins (RAMPs). All three RAMPs can interact with the CTR and form AMY1, AMY2, AMY3 with RAMP1, RAMP2 and RAMP3, respectively. Like other class B1 GPCRs, the CT receptor family is canonically coupled to Gs-mediated cAMP production, and measurement of cAMP accumulation has been the primary assay used to determine peptide selectivity and potency.
To optimize functional activity directed toward Gas coupling, COS-7 cells were stably transfected with human calcitonin receptor (CTR) and RAMP3, simultaneously. 100× concentration of compound working solutions were prepared (Agilent Technologies Bravo) with 4-fold serial dilution in 384-well Echo LDV plate (Labcyte, Cat #LP-0200). 100 nL/well 100× concentration of compound working solutions were moved to 384-well white low volume plate (Greiner, Cat #784075) using Labcyte ECHO550. 1×10^5 cells/mL COS-7/CTR or COS-7/AMY3 (HD Biosciences) cell suspensions prepared with assay buffer [DPBS containing 0.5 mM IBMX (Sigma, Cat #15879) and 0.1% BSA (GENVIEW, Cat #FA016-100 g)], 10 μL cell suspensions were added to each well of previous generated assay plate which already contains 100 nL compound at 100× concentration using ThermoFisher Multidrop Combi (1000 cells/well). Seal the plate and incubate at 37° C. with 5% CO2 for 30 min.
After incubation, the cAMP assay signal was generated using cAMP Hi-range Kit (Cisbio). 5 μL cAMP-d2 working solution was added to each well, followed by 5 μL Anti-cAMP antibody-cryptate working solution which was added to each well using ThermoFisher Multidrop Combi. The samples were then incubated at room temperature for 1 hour protected from light. the fluorescence was read at 665 and 615 nm with Reader PerkinElmer EnVision.

Chain of human calcitonin receptor (CTR) and RAMP3 (AMY3) in COS-7 cells (P30988 25-474): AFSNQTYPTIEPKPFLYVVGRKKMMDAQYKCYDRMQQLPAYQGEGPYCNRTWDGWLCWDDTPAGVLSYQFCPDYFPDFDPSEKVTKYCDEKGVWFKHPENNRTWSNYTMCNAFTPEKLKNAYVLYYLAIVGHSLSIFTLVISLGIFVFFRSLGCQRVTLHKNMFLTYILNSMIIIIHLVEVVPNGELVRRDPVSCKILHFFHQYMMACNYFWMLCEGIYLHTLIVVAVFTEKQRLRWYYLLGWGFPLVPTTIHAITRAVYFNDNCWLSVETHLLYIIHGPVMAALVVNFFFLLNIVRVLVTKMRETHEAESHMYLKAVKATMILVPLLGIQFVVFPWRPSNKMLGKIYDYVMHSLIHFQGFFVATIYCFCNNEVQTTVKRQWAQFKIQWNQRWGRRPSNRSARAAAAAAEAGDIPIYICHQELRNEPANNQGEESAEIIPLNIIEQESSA
Chain of human calcitonin receptor (CTR) and RAMP3 (AMY3) in COS-7 cells (O60896 24-148): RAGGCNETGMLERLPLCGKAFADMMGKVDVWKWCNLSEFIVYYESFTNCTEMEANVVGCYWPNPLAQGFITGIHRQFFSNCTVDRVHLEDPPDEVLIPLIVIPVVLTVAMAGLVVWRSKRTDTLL

Compound	EC50 [nM]
Cc1nnc(-c2c(CC(F)c3ccc(F)cc3)nc(CC(C)C)c(C(N)=O)c2-c2ccc(C(=O)N[C@@H]3CCc4ccccc43)s2)o1 (stereo partly drawn) [Compound 187, 4-(5-(((R)-2,3-dihydro-1H-inden-1-yl)carbamoyl)thiophen-2-yl)-6-(2-fluoro-2-(4-fluorophenyl)ethyl)-2-isobutyl-5-(5-methyl-1,3,4-oxadiazol-2-yl)nicotinamide]	99.3
Cc1noc(-c2c(CCc3ccc(F)cc3)nc(CC(C)C)c(C(N)=O)c2-c2ccc(-c3cn(Cc4ccc(F)c(F)c4)nn3)s2)n1 [Compound 104, 4-(5-{1-[(3,4-difluorophenyl)methyl]-1H-1,2,3-triazol-4-yl}-2-thienyl)-6-[2-(p-fluorophenyl)ethyl]-2-isobutyl-5-(3-methyl-1,2,4-oxadiazol-5-yl)nicotinamide]	444
Cc1nnc(-c2c(CCc3ccc(F)cc3)nc(CC(C)C)c(C(N)=O)c2-c2cc3ccnc(NCc4ccccn4)c3s2)o1 [Compound 200, 6-(4-fluorophenethyl)-2-isobutyl-5-(5-methyl-1,3,4-oxadiazol-2-yl)-4-(7-((pyridin-2-ylmethyl)amino)thieno[2,3-c]pyridin-2-yl)nicotinamide]	273
COc1cccc(CNC(=O)c2ccc(-c3c(C(N)=O)c(CC(C)C)nc(CCc4ccc(F)cc4)c3-c3nnc(C)o3)s2)c1 [Compound 113, N-(m-methoxyphenyl)methyl-5-{5-carbamoyl-2-[2-(p-fluorophenyl)ethyl]-6-isobutyl-3-(5-methyl-1,3,4-oxadiazol-2-yl)-4-pyridyl}-2-thenamide]	6.2
Cc1nnc(-c2c(CCc3ccc(F)cc3)nc(CC(C)C)c(C(N)=O)c2-c2ncc(C(=O)NCc3ccc(F)c(F)c3)s2)o1 [Compound 125, N-(3,4-difluorophenyl)methyl-2-{5-carbamoyl-2-[2-(p-fluorophenyl)ethyl]-6-isobutyl-3-(5-methyl-1,3,4-oxadiazol-2-yl)-4-pyridyl}-1,3-thiazole-5-carboxamide]	212
CC(C)Cc1nc(CCc2ccc(F)cc2)c(-c2ccn(C)n2)c(-c2ccc(C(=O)NCc3ccc(F)c(F)c3)s2)c1C(N)=O [Compound 204, 4-(5-((3,4-difluorobenzyl)carbamoyl)thiophen-2-yl)-6-(4-fluorophenethyl)-2-isobutyl-5-(1-methyl-1H-pyrazol-3-yl)nicotinamide]	67.3
COc1ccc(CNC(=O)c2ccc(-c3c(C(N)=O)c(CC(C)C)nc(CCc4ccc(F)cc4)c3-c3nnc(C)o3)s2)cc1 [Compound 114, N-(p-methoxyphenyl)methyl-5-{5-carbamoyl-2-[2-(p-fluorophenyl)ethyl]-6-isobutyl-3-(5-methyl-1,3,4-oxadiazol-2-yl)-4-pyridyl}-2-thenamide]	323
Cc1nnc(-c2c(CCc3ccc(F)cc3)nc(CC(C)C)c(C(N)=O)c2-c2ccc(C(=O)NCc3ccccc3)s2)o1 [Compound 115, N-benzyl-5-{5-carbamoyl-2-[2-(p-fluorophenyl)ethyl]-6-isobutyl-3-(5-methyl-1,3,4-oxadiazol-2-yl)-4-pyridyl}-2-thenamide]	85
Cc1nnc(-c2c(CCc3ccc(F)cc3)nc(NC(C)C)c(C(N)=O)c2-c2ccc(C(=O)NCc3ccc(F)c(F)c3)s2)o1 [Compound 168, 4-(5-((3,4-difluorobenzyl)carbamoyl)thiophen-2-yl)-6-(4-fluorophenethyl)-2-(isopropylamino)-5-(5-methyl-1,3,4-oxadiazol-2-yl)nicotinamide]	540
Cc1nnc(-c2c(CC(O)c3ccc(F)cc3)nc(CC(C)C)c(C(N)=O)c2-c2ccc(C(=O)N[C@@H]3CCc4ccccc43)s2)o1 (stereo partly drawn) [Compound 185, 4-(5-(((R)-2,3-dihydro-1H-inden-1-yl)carbamoyl)thiophen-2-yl)-6-(2-(4-fluorophenyl)-2-hydroxyethyl)-2-isobutyl-5-(5-methyl-1,3,4-oxadiazol-2-yl)nicotinamide]	507
Cc1nnc(-c2c(CCc3ccc(F)cc3)nc(CC(C)C)c(C(N)=O)c2-c2ccc3c(NCc4ccc(F)c(F)c4)nccc3c2)o1 [Compound 162]	74
Cc1nnc(-c2c(CCc3ccc(F)cc3)nc(CC(C)C)c(C(N)=O)c2CCOC(=O)NCc2ccc(F)c(F)c2)o1 [Compound 145]	6290
CCc1nc(CC(C)C)c(C(N)=O)c(-c2ccc(C(=O)NCc3ccc(F)c(F)c3)cc2)c1-c1nnc(C)o1 [Compound 199, 4-(4-((3,4-difluorobenzyl)carbamoyl)phenyl)-6-ethyl-2-isobutyl-5-(5-methyl-1,3,4-oxadiazol-2-yl)nicotinamide]	> 1000
Cc1cc(-c2c(CCc3ccc(F)cc3)nc(CC(C)C)c(C(N)=O)c2-c2ccc(C(=O)NCc3ccc(F)c(F)c3)s2)ccn1 [Compound 160]	26
Cc1ccc(-c2c(CCc3ccc(F)cc3)nc(CC(C)C)c(C(N)=O)c2-c2ccc(C(=O)NCc3ccc(F)c(F)c3)s2)cn1 [Compound 171, 4-(5-((3,4-difluorobenzyl)carbamoyl)thiophen-2-yl)-2-(4-fluorophenethyl)-6-isobutyl-6′-methyl-[3, 3′-bipyridine]-5-carboxamide]	59.7
Cc1nnc(-c2c(C3CC3c3ccc(F)cc3)nc(CC(C)C)c(C(N)=O)c2-c2ccc(C(=O)NCc3ccc(F)c(F)c3)s2)o1 (stereo not drawn) [Compound 178, 4-(5-((3,4-difluorobenzyl)carbamoyl)thiophen-2-yl)-6-(2-(4-fluorophenyl)cyclopropyl)-2-isobutyl-5-(5-methyl-1,3,4-oxadiazol-2-yl)nicotinamide]	112
Cc1nnc(-c2c(CC3CC(F)(F)C3)nc(CC(C)C)c(C(N)=O)c2-c2ccc(C(=O)NCc3ccc(F)c(F)c3)s2)o1 [Compound 193, 4-(5-((3,4-difluorobenzyl)carbamoyl)thiophen-2-yl)-6-((3,3-difluorocyclobutyl)methyl)-2-isobutyl-5-(5-methyl-1,3,4-oxadiazol-2-yl)nicotinamide]	3550
Cc1ccc(CNc2nccc3cc(-c4c(C(N)=O)c(CC(C)C)nc(CCc5ccc(F)cc5)c4-c4nnc(C)o4)sc23)cn1 [Compound 157]	625
COCC1CN(c2nccc3cc(-c4c(C(N)=O)c(CC(C)C)nc(CCc5ccc(F)cc5)c4-c4nnc(C)o4)sc23)C1 [Compound 134, 6-(4-fluorophenethyl)-2-isobutyl-4-(7-(3-(methoxymethyl)azetidin-1-yl)thieno[2,3-c]pyridin-2-yl)-5-(5-methyl-1,3,4-oxadiazol-2-yl)nicotinamide]	1160
Cc1nnc(-c2c(CCCC(C)C)nc(CC(C)C)c(C(N)=O)c2-c2ccc(C(=O)NCc3ccc(F)c(F)c3)s2)o1 [Compound 108, 4-(5-((3,4-difluorobenzyl)carbamoyl)thiophen-2-yl)-2-isobutyl-5-(5-methyl-1,3,4-oxadiazol-2-yl)-6-(4-methylpentyl)nicotinamide]	70.7
Cc1nnc(-c2c(CCc3ccc(F)cc3)nc(CC(C)C)c(C(N)=O)c2-c2ccc3c(ccn3CC3CCc4ccccc43)c2)o1 (stereo not drawn) [Compound 177, 4-(1-((2,3-dihydro-1H-inden-1-yl)methyl)-1H-indol-5-yl)-6-(4-fluorophenethyl)-2-isobutyl-5-(5-methyl-1,3,4-oxadiazol-2-yl)nicotinamide]	394
